IC50 and Solubility data for 2 molecules are collected here from US20080269266A1, “NOVEL COMPOUNDS 747” (ASTRAZENECA AB, priority 2007, published 2008).

The target in data set [1] is T1, human cytochrome P450 (CYP) 2C19 (Homo sapiens, UniProt P33261).
T1 construct: made in house; host or cells: yeast cell lines (microsomal fractions)
In words: Cytochrome P450 Inhibition Assay 2C19. It counts as in vitro ADME. The following applies: read-out: IC50 range, CYP 2C19. The method, then: The inhibitory potential (IC50) of test compounds against 5 human cytochrome P450 (CYP) isoforms (1A2, 2C9, 2C19, 3A4 and 2D6) was assessed using an automated fluorescent end point in vitro assay modified from Crespi (Crespi and Stresser, 2000). Microsomal subcellular fractions prepared from Yeast cell lines expressing each human CYP isoform were used as an enzyme source in this assay. The activity of the 5 major human CYPs was determined from the biotransformation of a number of coumarin substrates to fluorescent metabolites, in the presence of NADPH. […] Stock solutions of each CYP, with its respective substrate, were prepared in phosphate buffer pH7.4 (see Table 1) and 178 μl was added to the well of a black solid, flat bottom, 300 μl 96 well is microtitre plate (Corning Costar). […] After pre-incubating at 37° C. for 5 min the reactions were started with addition of NADPH (20 μl, concentration shown in Table 1). The final solvent content in each incubation was <=2% (1% from the test compound and a maximum of 1% from the substrate). The appropriate solvent controls and substrate blanks were included in each experiment to assess control activity and identify any inherent fluorescence due to the test compounds. In addition, known inhibitors of each CYP were included as positive controls (see Table 3 for inhibitor concentrations and expected IC50 ranges). The reactions were stopped at defined timepoints (see Table 1) by quenching with 100 μl of solvent (acetonitrile:0.5M Tris buffer 80:20 v/v). The plates were read on a fluorimeter (Spectrafluor Plus) at the appropriate excitation and emission wavelengths (listed in Table 2) and the percent activity, corrected for control, was plotted against the test compound concentration.

Data set [2] can be described thus: Solubility in 0.1 M phosphate buffer pH 7.4. Type of data set: physicochemical. The following applies: pH 7.4, 24 h, 25° C. The method, then:
Solubility values are determined by agitation of compounds in 0.1 M phosphate buffer at pH 7.4 for 24 h at 25° C. The supernatant is separated from undissolved material by double centrifugation and subsequently analyzed and quantified against a standard of known concentration in DMSO using generic HPLC-UV methodology coupled with mass spectral peak identification (J. Med. Chem., 2006, 49(23), 6672-6682).

T1 sequence (P33261 whole entry): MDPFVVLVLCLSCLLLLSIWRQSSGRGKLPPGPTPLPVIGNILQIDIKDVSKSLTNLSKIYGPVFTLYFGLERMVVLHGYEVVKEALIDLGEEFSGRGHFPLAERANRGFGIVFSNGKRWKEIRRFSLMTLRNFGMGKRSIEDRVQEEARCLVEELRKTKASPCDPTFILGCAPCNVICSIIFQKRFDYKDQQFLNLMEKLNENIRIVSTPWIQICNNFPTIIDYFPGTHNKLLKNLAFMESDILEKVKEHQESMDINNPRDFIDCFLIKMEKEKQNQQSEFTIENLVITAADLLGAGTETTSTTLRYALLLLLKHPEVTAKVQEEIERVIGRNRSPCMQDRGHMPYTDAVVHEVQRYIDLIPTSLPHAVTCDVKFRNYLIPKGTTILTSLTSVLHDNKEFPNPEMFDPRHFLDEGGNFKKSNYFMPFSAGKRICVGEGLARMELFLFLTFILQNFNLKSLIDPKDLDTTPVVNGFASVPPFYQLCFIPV

As to `COc1ccc2[nH]c([S+]([O-])Cc3ncc(C)c(OC)c3C)nc2c1` (centres unmarked) [Omeprazole], the IC50 (commonly the concentration that gives 50% inhibition) in data set [1] was 1.5 to 4.6 µM.

Take `COc1cc(Nc2cc(C)n[nH]2)nc(N2CCC[C@H]2c2cc(-c3ncccn3)no2)n1` [mixture of Forms 1 and 3, (S)-6-Methoxy-2-{2-[3-(pyrimid-2-yl)isoxazol-5-yl]pyrrolidin-1-yl}-4-(5-methyl-1H-pyrazol-3-ylamino)pyrimidine]: in data set [2], the Solubility result is on record as “around 18 μM”.
